In ChEMBL document CHEMBL1201862, “PubChem BioAssay data set” (2004):
Activity calls are given as the source filed them.

Experiments:
[1] = biological target: Beta-galactosidase (Escherichia coli, UniProt Q8VNN2); assay: Dose response counterscreen for EBI2 assay utilizing the enzyme, b-galactosidase.; type: functional
[2] = biological target: T1, Fatty acid synthase (Homo sapiens, UniProt P49327); assay: inhibition of human FAS-TE enzyme activity – biochemical, kinetic fluorescence intensity, dose response (AID 624326); type: functional;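 note: rate of fluorescence rise from hydrolysis of a fluorogenic O-methyl fluorescein ester substrate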
[3] = biological target: T1, Fatty acid synthase; assay: inhibition of human FAS-TE enzyme activity – biochemical, endpoint fluorescence intensity, uHTS hits, dose response (AID 624327); type: functional;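 note: fluorescence from hydrolysis of an O-methyl fluorescein acyl ester substrate by the enzyme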
[4] = biological target: T2, Replicative DNA helicase DnaB (Mycobacterium tuberculosis, UniProt P9WMR3); assay: DnaB intein splicing inhibitors, dose response, biochemical, cell-free fluorescence (AID 449749); type: functional
T2 sequence (P9WMR3 whole entry): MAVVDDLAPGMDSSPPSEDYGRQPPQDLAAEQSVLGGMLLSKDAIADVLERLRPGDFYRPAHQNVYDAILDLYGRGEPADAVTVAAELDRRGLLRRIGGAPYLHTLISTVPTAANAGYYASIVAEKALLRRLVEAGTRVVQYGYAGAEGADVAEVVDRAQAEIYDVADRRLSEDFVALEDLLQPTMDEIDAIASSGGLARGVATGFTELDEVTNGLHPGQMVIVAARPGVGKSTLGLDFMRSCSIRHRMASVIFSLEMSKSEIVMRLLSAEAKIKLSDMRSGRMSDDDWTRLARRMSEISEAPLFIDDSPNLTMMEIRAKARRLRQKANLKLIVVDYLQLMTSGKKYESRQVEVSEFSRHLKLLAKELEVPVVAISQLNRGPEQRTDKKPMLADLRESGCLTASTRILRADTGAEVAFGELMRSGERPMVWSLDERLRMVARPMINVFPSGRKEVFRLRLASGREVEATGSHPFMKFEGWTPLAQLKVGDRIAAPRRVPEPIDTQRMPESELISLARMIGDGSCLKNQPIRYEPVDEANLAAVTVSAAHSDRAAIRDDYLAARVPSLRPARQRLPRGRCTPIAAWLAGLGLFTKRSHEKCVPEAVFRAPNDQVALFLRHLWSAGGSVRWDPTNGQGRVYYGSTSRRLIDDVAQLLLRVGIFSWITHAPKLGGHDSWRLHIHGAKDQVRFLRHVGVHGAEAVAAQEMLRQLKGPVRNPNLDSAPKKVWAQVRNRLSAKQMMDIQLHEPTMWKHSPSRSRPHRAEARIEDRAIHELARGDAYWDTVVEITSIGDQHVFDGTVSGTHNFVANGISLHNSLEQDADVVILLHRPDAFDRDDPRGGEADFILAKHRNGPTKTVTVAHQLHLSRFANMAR

[5] = biological target: T3, Protein RecA (Mycobacterium tuberculosis, UniProt P9WHJ3); assay: Fluorescence Cell-Free Homogeneous Dose Retest to Identify Inhibitors of RecA-Intein Splicing Activity. [Related pubchem assays (depositor defined):AID2097, AID2223, AID489010, AID492950]; type: functional
T3 sequence (P9WHJ3 whole entry): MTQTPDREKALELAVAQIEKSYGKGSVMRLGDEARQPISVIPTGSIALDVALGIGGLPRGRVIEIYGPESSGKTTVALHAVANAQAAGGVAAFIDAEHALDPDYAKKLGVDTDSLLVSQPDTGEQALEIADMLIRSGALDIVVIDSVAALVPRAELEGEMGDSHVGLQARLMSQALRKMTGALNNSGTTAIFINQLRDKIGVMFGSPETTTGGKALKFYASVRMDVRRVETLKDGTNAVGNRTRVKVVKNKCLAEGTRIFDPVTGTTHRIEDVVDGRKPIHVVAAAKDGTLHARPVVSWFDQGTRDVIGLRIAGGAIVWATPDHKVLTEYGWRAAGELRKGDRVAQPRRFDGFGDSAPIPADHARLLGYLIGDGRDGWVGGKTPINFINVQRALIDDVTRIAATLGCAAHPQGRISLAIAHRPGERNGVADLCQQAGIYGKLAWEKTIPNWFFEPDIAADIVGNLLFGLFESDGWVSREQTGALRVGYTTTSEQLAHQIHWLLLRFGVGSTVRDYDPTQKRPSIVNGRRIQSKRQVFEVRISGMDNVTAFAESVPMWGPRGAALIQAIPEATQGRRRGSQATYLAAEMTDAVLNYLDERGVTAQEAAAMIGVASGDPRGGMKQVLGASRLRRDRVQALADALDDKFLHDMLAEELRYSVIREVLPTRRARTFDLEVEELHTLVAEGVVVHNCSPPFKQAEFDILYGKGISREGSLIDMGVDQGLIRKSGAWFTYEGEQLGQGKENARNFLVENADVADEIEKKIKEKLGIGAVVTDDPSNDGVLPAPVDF

[6] = biological target: T4, Mannose-6-phosphate isomerase (Homo sapiens, UniProt P34949); assay: MPI inhibition at elevated mannose 6-phosphate – biochemical, fluorescence intensity, high mannose 6-phosphate, primary screen (AID 1220)
T4 sequence (P34949 whole entry): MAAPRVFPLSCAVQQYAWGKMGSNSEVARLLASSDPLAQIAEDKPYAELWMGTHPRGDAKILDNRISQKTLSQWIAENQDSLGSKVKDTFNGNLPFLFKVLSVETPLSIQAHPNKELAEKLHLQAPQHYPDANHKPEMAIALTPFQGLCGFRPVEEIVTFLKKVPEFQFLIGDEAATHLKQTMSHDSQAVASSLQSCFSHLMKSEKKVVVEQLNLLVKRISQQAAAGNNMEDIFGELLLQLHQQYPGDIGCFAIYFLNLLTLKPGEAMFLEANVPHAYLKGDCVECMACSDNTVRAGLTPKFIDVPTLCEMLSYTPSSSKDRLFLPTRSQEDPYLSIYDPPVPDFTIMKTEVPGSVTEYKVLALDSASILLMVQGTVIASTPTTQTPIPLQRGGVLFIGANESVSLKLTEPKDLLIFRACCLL

[7] = biological target: T5, Leucine aminopeptidase (Plasmodium falciparum 3D7, UniProt Q8IL11); assay: P. falciparum M17LAP inhibitors, primary screen, biochemical, fluorogenic H-Leu-NHMec substrate, 1536-well (AID 1619); type: functional
T5 sequence (Q8IL11 whole entry): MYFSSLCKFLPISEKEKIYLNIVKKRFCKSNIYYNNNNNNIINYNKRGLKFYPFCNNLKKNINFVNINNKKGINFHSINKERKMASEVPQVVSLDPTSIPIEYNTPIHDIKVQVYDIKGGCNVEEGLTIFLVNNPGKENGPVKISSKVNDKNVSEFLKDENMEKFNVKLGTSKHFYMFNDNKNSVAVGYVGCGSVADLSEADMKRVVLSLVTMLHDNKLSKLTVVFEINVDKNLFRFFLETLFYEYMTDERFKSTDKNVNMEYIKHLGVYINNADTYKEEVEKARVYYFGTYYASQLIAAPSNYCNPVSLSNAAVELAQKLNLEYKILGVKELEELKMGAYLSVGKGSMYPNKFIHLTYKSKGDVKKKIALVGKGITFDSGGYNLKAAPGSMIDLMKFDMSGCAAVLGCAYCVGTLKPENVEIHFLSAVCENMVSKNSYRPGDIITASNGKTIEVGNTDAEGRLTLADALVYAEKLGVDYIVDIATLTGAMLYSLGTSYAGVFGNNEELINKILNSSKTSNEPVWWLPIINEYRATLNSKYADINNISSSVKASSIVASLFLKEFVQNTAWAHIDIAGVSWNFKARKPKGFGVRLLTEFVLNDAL

[8] = biological target: T6, Estrogen receptor beta (Homo sapiens, UniProt Q92731); assay: blockers of SRC-3 recruitment to ERβ – biochemical, ELISA, streptavidin-HRP readout, orthogonal assay, confirmation (AID 1060)
[9] = biological target: T6, Estrogen receptor beta
[10] = biological target: T7, Polyadenylate-binding protein 1 (Homo sapiens, UniProt P11940); assay: MLLE domain peptide-binding blockers, IC50 – biochemical, fluorescence polarization, FITC-PAM2 peptide, dose response (AID 602259); type: functional; settings: read-out: IC50_Mean
[11] = biological target: T7, Polyadenylate-binding protein 1; assay: MLLE binding blockers, Cy5 peptide tracer – biochemical, fluorescence polarization, Cy5-PAM2 peptide, secondary, miRNA deadenylation inhibitor project, dose response (AID 602260); type: functional; settings: read-out: IC50_Mean
[12] = intracellular Trypanosoma cruzi inhibitors in host cells – cell-based, plate reader, cherry-pick samples, set 3, dose response (AID 651818); type: functional;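 note: compounds incubated with infected cells for about four days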
[13] = biological target: Protein Wnt-3a (Mus musculus, UniProt P27467); assay: antagonism of Wnt3a pathway luciferase reporter – Wnt-LIGHT cells, luminescence, selectivity assay for Gli-SUFU antagonist project, dose response (AID 651570); type: functional; settings: read-out: IC50_Mean;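 note: Wnt-LIGHT reporter cells stimulated with conditioned medium from Wnt3a-producing cells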
[14] = cells; type: functional
[15] = biological target: T8, Ubiquitin-conjugating enzyme E2 N (Homo sapiens, UniProt P61088); type: functional;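 note: Dose-response confirmation in a TR-FRET assay detecting UBC13-driven polyubiquitin chain formation, inhibition measured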
T8 sequence (P61088 whole entry): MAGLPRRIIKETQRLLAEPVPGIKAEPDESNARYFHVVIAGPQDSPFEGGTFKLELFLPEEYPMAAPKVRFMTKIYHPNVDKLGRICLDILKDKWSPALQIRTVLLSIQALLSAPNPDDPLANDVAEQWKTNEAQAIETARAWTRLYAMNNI

[16] = THP-1 cell cytotoxicity, dose response, cytotoxicity control for non-replicating M. tuberculosis project (AID 489025); type: functional
[17] = blockers of HIV-1 ZM109 envelope-driven cell-cell fusion – HeLa effector, CEM target cells, luciferase, cherry-pick, dose response (AID 652058); type: functional, cell-based;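 note: luciferase signal from HIV-1 Env mediated cell-cell fusion of effector and target cells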
[18] = blockers of HIV-1 envelope-mediated cell-cell fusion – cherry-pick, dose response (AID 652057); type: functional, cell-based
[19] = HIV-1 AD8 envelope cell-cell fusion blockers – cherry-pick, dose response (AID 652062); type: functional, cell-based;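 note: luciferase signal from cell-cell fusion driven by HIV-1 clade B AD8 Env; potency is for inhibitors of fusion seen as a drop in luminescence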
[20] = test system: Vero; assay: viability of Vero cells under compound – cytotoxicity control for flavivirus capping enzyme inhibitors (AID 588742); type: functional; settings: Chlorocebus sabaeus

T1 sequence (P49327 whole entry): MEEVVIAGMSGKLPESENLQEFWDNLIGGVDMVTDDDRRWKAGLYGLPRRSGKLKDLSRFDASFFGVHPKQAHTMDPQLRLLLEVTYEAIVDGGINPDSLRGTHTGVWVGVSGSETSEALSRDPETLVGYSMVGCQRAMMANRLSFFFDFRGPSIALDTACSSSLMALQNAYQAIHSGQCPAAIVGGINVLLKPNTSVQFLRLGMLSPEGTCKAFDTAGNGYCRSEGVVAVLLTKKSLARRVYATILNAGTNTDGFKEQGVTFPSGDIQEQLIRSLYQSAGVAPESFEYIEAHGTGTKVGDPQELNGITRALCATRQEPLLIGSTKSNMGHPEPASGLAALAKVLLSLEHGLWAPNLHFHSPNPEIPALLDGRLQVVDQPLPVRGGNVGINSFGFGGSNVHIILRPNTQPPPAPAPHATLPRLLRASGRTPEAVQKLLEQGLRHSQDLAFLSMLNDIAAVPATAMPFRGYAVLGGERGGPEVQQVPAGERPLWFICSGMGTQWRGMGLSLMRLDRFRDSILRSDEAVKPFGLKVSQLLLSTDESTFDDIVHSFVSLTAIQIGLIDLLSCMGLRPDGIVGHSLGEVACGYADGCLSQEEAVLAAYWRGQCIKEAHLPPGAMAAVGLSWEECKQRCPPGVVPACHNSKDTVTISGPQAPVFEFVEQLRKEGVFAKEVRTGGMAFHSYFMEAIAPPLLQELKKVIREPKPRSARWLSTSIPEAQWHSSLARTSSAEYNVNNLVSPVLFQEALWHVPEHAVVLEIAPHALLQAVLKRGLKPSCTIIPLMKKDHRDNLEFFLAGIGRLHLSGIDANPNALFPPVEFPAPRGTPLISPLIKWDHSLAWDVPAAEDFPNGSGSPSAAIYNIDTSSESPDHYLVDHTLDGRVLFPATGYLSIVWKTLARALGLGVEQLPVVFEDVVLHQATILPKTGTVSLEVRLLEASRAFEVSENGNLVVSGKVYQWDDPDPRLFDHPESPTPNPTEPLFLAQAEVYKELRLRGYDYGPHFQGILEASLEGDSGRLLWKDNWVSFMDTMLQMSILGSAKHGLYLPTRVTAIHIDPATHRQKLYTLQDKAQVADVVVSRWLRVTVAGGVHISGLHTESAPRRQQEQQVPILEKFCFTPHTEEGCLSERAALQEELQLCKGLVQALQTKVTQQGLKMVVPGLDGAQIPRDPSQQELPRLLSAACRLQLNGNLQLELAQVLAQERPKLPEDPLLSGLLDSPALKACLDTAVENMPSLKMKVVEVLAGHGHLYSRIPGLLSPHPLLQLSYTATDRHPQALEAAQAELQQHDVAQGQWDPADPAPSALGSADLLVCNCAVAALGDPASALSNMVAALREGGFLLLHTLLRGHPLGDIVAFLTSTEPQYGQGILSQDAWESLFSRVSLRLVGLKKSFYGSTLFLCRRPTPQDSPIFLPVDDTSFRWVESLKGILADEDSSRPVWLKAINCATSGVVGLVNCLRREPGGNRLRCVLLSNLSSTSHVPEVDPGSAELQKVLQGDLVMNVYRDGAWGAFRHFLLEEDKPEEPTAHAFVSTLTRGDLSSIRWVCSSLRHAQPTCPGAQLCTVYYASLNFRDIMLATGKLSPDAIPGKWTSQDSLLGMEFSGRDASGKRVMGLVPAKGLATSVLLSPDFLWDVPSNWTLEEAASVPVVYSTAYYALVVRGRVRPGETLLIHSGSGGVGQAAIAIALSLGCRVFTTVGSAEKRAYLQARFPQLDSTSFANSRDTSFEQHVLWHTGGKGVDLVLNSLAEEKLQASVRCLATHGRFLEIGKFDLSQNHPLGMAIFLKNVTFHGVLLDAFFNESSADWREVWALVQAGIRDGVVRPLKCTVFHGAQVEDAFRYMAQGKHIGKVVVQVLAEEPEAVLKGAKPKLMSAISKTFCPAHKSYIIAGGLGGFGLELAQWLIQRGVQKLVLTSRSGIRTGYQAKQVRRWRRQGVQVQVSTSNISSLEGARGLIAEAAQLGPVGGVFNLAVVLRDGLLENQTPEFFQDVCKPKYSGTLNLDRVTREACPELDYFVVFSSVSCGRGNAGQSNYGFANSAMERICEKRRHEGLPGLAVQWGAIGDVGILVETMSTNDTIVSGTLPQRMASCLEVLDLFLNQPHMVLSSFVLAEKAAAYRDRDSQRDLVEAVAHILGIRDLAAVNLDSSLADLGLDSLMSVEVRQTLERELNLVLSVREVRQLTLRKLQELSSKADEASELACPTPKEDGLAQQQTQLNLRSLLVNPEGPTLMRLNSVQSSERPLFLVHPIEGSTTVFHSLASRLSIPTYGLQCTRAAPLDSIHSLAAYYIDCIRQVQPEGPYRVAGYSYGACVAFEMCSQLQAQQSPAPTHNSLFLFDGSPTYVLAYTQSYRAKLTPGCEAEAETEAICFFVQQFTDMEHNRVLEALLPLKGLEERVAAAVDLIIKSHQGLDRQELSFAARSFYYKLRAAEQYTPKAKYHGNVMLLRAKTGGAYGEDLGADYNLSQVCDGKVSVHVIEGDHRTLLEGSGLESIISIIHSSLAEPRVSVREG
T6 sequence (Q92731 whole entry): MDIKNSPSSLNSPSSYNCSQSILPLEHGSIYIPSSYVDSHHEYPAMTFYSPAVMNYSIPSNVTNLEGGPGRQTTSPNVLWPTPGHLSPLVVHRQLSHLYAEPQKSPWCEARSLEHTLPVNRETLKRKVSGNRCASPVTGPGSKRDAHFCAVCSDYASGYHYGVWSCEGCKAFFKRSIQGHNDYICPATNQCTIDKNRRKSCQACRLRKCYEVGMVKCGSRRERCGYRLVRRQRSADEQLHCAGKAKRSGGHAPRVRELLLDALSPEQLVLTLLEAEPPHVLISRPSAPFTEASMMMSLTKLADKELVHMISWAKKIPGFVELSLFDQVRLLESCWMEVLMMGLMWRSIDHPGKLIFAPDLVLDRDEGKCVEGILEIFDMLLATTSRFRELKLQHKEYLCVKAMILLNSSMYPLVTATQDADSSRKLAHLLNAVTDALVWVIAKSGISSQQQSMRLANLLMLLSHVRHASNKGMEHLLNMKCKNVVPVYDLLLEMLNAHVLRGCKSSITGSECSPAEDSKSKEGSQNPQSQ
Chain of Beta-galactosidase (Q8VNN2 whole entry): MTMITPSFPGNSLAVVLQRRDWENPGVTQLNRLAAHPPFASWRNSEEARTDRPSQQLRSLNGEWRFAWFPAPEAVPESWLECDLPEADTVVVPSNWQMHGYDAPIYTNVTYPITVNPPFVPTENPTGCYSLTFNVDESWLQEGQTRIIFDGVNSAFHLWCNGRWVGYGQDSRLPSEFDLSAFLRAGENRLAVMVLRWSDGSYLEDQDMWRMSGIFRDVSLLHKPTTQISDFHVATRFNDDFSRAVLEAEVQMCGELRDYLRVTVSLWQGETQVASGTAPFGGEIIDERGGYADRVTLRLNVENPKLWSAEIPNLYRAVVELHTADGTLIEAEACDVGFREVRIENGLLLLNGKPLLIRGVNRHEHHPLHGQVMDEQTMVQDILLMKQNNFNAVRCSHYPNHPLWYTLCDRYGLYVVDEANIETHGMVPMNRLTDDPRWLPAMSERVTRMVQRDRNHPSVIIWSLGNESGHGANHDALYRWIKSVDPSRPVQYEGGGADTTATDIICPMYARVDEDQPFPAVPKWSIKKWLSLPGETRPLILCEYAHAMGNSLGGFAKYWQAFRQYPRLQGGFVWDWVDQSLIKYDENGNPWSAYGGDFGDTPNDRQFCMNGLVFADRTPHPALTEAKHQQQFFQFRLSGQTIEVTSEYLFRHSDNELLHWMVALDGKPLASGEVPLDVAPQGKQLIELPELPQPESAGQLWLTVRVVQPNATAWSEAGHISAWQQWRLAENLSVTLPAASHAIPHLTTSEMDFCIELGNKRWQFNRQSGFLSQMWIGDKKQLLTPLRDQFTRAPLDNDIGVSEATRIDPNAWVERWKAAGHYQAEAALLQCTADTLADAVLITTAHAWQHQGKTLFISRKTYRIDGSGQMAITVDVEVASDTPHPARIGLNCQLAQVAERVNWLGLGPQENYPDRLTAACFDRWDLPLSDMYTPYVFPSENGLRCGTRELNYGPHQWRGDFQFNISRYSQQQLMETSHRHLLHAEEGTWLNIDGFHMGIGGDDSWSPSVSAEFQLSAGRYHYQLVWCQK
T7 sequence (P11940 whole entry, the tested form may be a part): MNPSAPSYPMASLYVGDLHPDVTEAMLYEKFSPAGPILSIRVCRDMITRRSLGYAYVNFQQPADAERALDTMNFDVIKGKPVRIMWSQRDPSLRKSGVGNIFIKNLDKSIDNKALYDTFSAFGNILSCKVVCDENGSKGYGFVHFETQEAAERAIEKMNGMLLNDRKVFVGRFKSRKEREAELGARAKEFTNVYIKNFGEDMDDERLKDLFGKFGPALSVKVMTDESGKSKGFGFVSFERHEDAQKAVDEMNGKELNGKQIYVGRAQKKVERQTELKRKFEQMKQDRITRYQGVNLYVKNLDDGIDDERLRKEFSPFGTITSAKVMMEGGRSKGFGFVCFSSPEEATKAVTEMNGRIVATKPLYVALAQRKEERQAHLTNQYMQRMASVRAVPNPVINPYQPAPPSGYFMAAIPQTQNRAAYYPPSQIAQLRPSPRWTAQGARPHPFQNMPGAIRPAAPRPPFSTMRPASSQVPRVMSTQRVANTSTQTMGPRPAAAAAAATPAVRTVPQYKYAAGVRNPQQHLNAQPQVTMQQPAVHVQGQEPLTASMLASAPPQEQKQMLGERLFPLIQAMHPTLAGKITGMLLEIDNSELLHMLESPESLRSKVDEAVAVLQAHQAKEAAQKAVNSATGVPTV
Chain of Protein Wnt-3a (P27467 whole entry): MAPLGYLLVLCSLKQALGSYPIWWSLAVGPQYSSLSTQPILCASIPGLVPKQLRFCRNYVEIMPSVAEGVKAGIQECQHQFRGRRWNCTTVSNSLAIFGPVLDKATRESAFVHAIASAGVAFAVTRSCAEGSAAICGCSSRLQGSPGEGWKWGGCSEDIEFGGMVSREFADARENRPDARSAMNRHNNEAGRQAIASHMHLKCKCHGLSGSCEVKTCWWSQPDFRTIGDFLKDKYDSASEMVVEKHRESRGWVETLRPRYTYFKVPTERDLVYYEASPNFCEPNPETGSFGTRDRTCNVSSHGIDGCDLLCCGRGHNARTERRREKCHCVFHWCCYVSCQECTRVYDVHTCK

COc1ccc(/C=C(\C#N)C(=O)Nc2cc(S(=O)(=O)N3CCOCC3)ccc2N2CCCC2)cc1
IC50 [1]: > 80 µM (inactive)

CN(CCOc1ccccc1)CC(=O)Nc1ccc([N+](=O)[O-])cc1Cl
IC50 [2]: 12.7 µM (active) | IC50 [3]: 9.54 µM (active)

O=C(/C=C/c1ccccc1)N1CCN(c2cccc(Cl)n2)CC1
IC50 [1]: > 80 µM (inactive)

COc1ccc2ccc3c(c2c1)N=CC1(O3)N(C)c2ccccc2C1(C)C (centres undefined)
AC50 [4]: 2.96 µM (active) | EC50 [5]: 36.2 µM (active) | IC50 [6]: > 50 µM (not active)

O=C(CSc1ccc([N+](=O)[O-])cn1)Nc1ccc2c(c1)OCCO2
IC50 [2]: 4.17 µM (active) | IC50 [3]: 1.51 µM (active)

COc1cccc(-c2[nH]nc3c2C(c2ccoc2)C(C#N)=C(N)O3)c1 (centres undefined)
IC50 [7]: 76.8 µM (active) | AC50 [4]: 8.72 µM (active) | EC50 [5]: 1.07 µM (active) | IC50 [8]: > 50 µM (not active) | IC50 [9]: 20 µM (active)

COc1ccc(-c2nn(CCC#N)cc2C(=O)Nc2ccc(C(C)=O)cc2)cc1[N+](=O)[O-]
IC50 [2]: 4.1 µM (active) | IC50 [3]: 1.41 µM (active)

O=C(c1cc(COc2cccc(C(F)(F)F)c2)on1)N1C[C@@H]2CCC[C@H]1C2
IC50 [2]: 10.7 µM (active) | IC50 [3]: 12.4 µM (active)

CCOC(=O)c1c(-c2cccs2)csc1N
IC50 [6]: > 50 µM (not active)

Nc1ccc2c(c1)OC1(CCCCC1)O2
IC50 [6]: > 50 µM (not active)

Nc1c(-c2cccc(Cl)c2)cnn1-c1cccc([N+](=O)[O-])c1
IC50 [2]: 12 µM (active) | IC50 [3]: 11 µM (active)

CCCc1nn(-c2ccccc2)c2c1C(c1cccs1)C(C#N)=C(N)O2 (centres undefined)
AC50 [4]: 12.6 µM (active) | EC50 [5]: 3.58 µM (active) | IC50 [1]: > 80 µM (inactive)

CCOC(=O)COc1ccc2c(C#N)c3ccccn3c2c1
IC50 [10]: > 66 µM (inactive) | IC50 [6]: > 50 µM (not active) | IC50 [11]: > 66 µM (inactive)

CCc1ccc2oc(C(=O)N3CCN(c4ccccc4OC)CC3)cc(=O)c2c1
IC50 [1]: > 80 µM (inactive)

NC(=O)c1ccsc1NC(=O)COC(=O)Cc1ccsc1
IC50 [8]: 1.84 µM (not active) | IC50 [9]: 5.55 µM (active)

C[C@@H]1CN([C@H](C)CO)C(=O)c2cc(NC(=O)Nc3ccc(C(F)(F)F)cc3)ccc2O[C@H]1CN(C)S(=O)(=O)c1ccccc1
AC50 [12]: 7.36 µM (active)

CCC(C)[C@H]1CN=C(N)N1CCc1cccc2ccccc12 (some centres undefined)
IC50 [13]: 6.06 µM (active) | IC50 [14]: 22.5 µM (active) | IC50 [15]: > 20 µM (inactive) | CC50 [16]: 15.8 µM (active)

C[C@@H]1CN([C@@H](C)CO)C(=O)c2cc(NS(=O)(=O)c3ccc(Cl)cc3)ccc2O[C@@H]1CN(C)Cc1ccc(-c2ccccc2)cc1
AC50 [12]: 3.31 µM (active)

C[C@@H]1CCCCO[C@@H](CN(C)Cc2ccc(Cl)c(Cl)c2)[C@@H](C)CN([C@H](C)CO)C(=O)c2cc(NC(=O)C3CCCCC3)ccc2O1
AC50 [12]: 2.9 µM (active)

C[C@H]1CN([C@@H](C)CO)C(=O)c2cc(NC(=O)Cc3cn(C)c4ccccc34)ccc2O[C@H]1CN(C)Cc1ccc(-c2ccccc2)cc1
AC50 [12]: 3.27 µM (active)

Cc1ccc(S(=O)(=O)N(C)C[C@@H]2Oc3cc(Br)ccc3S(=O)(=O)N([C@H](C)CO)C[C@@H]2C)cc1
AC50 [17]: 7.1 µM (active) | AC50 [18]: 4.58 µM (active) | AC50 [19]: 26.6 µM (active)

COc1cc(/C=N/NC(=O)c2cc3ccccc3cc2O)ccc1OCCN1CCCCC1
CC50 [20]: > 40 µM (active) | IC50 [6]: > 50 µM (not active)
